Series [1] concerns Hepatitis B virus (HBV). Kind of series: HBV growth inhibition: inhibition of cytoplasmic HBV-DNA synthesis in HB611 cells (Southern blotting). It is filed as cell-based. As to the method:
Inhibitory activity against the growth of Hepatitis B virus (HBV)
(§1) HBV growth inhibitory activities of the compounds of the present invention were measured by a conventional method (K. Ueda, et al., Virology, 169, pp.213-216, 1989). HB611 cells (2×10^4, recombinant human hepatocellular carcinoma cells producing HBV) were cultured in Dulbecco ME medium containing 10% fetal bovine serum, streptomycin (100 μg/ml), penicillin (100 IU/ml), and Geneteicin (trade name, the antibiotic manufactured by Life Technologies, Co., Ltd., 0.2 mg/ml) at 37° C. The medium was changed with fresh medium on the second day and fifth day of the culture, and then the medium was changed with a medium containing a test compound at a final concentration of […] after 8, 11, and 14 days of the culture. Total cellular DNAs were collected on the 17th day of the culture. Amounts of the HBV-DNAs in the cells were measured by the Southern blotting method, and concentrations achieving 50% inhibition of cytoplasmic HBV-DNA synthesis were determined. concentrations of compounds required for 50% extinction of HB611 cells were also determined.

Series [2] in a line: Cytotoxicity: 50% extinction of HB611 cells. It is filed as cell-based. The settings on record: human, read-out: 50% cytotoxic concentration against HB611 cells. As to the method: as §1
In series [3] the test system is Hepatitis B virus (HBV). Nature of the series: HBV growth inhibitory activity of mouse serum after oral administration (HB611 cells). It is filed as cell-based. The settings on record: serum 5% (V/V) in HB611 cell medium. As to the method:
HBV growth inhibitory activity of mouse serum after oral administration
Groups of mice each consisting of three mice were administered orally with a test compound at a single dose of 1 g/kg or 0.3 g/kg. Blood was collected 30 minutes after the administration, and serum was prepared. HB611 cells (2×10^4, recombinant human hepatocellular carcinoma cells producing HBV) were cultured in Dulbecco ME medium containing 10% fetal bovine serum, streptomycin (100 μg/ml), penicillin (100 IU/ml), and Geneteicin (trade name, the antibiotic manufactured by Life Technologies, Co., Ltd., 0.2 mg/ml) at 37° C. The medium was changed with fresh medium on the second day and fifth day of the culture, and then the medium was changed with a medium containing a test serum at a final concentration of 5% (V/V) after 8, 11, and 14 days of the culture. Total cellular DNAs were collected on the 17th day of the culture. Amounts of the HBV-DNAs in the cells were measured by the Southern blotting method, and rates of inhibition of cytoplasmic HBV-DNA synthesis were determined. As a reference, a similar test was carried out using PMEA.

In series [4] the test system is herpes simplex type 2 virus (HSV-2). The settings on record: literature; cited from earlier work.
For series [5], the system named is human hepatitis B virus (HBV). Conditions: literature; cited from earlier work.
Series [6] concerns herpes simplex type 1 virus (HSV-1). Conditions: literature; cited from earlier work.
Series [7] relates to human immunodeficiency virus (HIV). The settings on record: literature; cited from earlier work.
Setting [8] is: HB611 cells, compound in medium after 8, 11 and 14 days, DNA collected on 17th day, read-out: 50% inhibitory concentration against HBV-DNA synthesis.
Where [9] appears, read: mouse serum 30 minutes after single oral dose of 0.3 g/kg.

Molecules are shown by their SMILES. Read-outs that look alike come from different tables or passages of the source.

With `CC(C)(C)C(=O)OCOP(=O)(COCCn1cnc2c(N)ncnc21)OCOC(=O)C(C)(C)C` [Reference 1, dipivaloyloxymethyl ester of PMEA], the IC50 in series [1] (HB611, read-out: 50% inhibitory concentration against HBV-DNA synthesis) stood at 18.8 µM. In addition, the CC50 in series [2] came out at 11 µM.
`COc1cccc(Sc2nc(N)nc3c2ncn3CCOCP(=O)(OCC(F)(F)F)OCC(F)(F)F)c1` [Compound No. 3, 2-amino-9-[2-[bis(2,2,2-trifluoroethyl)-phosphonylmethoxy]ethyl]-6-m-methoxyphenylthiopurine]: the IC50 in series [1] (setting [8]) was 0.04 µM. Also, the CC50 in series [2] is more than 1000 µM.
As for `COc1ccc(Sc2nc(N)nc3c2ncn3CCOCP(=O)(OCC(F)(F)F)OCC(F)(F)F)cc1` [Compound No. 4, 2-amino-9-[2-[bis(2,2,2-trifluoroethyl)-phosphonylmethoxy]ethyl]-6-p-methoxyphenylthiopurine], the IC50 in series [1] (setting [8]) turned out to be 0.05 µM. Also, the CC50 in series [2] was more than 1000 µM. In series [3] (setting [9]), the “Inhibitory rate against HBV-DNA synthesis” value (from here on “Inhibitory rate”) was 95.2%.
`Nc1ncnc2c1ncn2CCOCP(=O)(O)O` [PMEA, 9-(2-phosphonylmethoxy) ethyladenine]: the “reported as being effective against HSV-2” value in series [4] is reported as “effective”. The “reported as being effective against HBV” value in series [5] was “effective”. In addition, the “reported as being effective against HSV-1” value in series [6] is reported as “effective”. Also, the “Inhibitory rate” value in series [3] (mouse serum 30 minutes after single oral dose of 1.0 g/kg) is 35.5%. The “reported as being effective against HIV” value in series [7] is reported as “effective”.
As to `Nc1nc(N)c2ncn(CCOCP(=O)(O)O)c2n1` [PMDAP, 9-(2-phosphonylmethoxy)ethyl-2,6-diaminopurine], the “reported as being effective against HSV-2” value in series [4] is on record as “effective”. Further, the “reported as being effective against HBV” value in series [5] is given as “effective”. Moreover, the “reported as being effective against HSV-1” value in series [6] is given as “effective”. Besides, the “reported as being effective against HIV” value in series [7] is recorded as “effective”.
In the case of `Nc1nc(Sc2ccccc2)c2ncn(CCOCP(=O)(OCC(F)(F)F)OCC(F)(F)F)c2n1` [Compound No. 1, 2-amino-9-[2-[bis(2,2,2-trifluoroethyl)-phosphonylmethoxy]ethyl]-6-phenylthiopurine], in series [1] (setting [8]), the IC50 worked out at 0.01 µM. Moreover, in series [2], the CC50 was more than 1000 µM. In addition, the “Inhibitory rate” value in series [3] (setting [9]) amounted to 60.7%.
Regarding `COc1ccccc1Sc1nc(N)nc2c1ncn2CCOCP(=O)(OCC(F)(F)F)OCC(F)(F)F` [Compound No. 2, 2-amino-9-[2-[bis(2,2,2-trifluoroethyl)-phosphonylmethoxy]ethyl]-6-o-methoxyphenylthiopurine], the IC50 in series [1] (setting [8]) amounted to 0.08 µM. The CC50 in series [2] was more than 1000 µM.
With `Cc1ccc(Sc2nc(N)nc3c2ncn3CCOCP(=O)(OCC(F)(F)F)OCC(F)(F)F)cc1` [Reference 2, 9-[2-[bis(2,2,2-trifluoroethyl)phosphonylmethoxy]ethyl]-2-amino-6-p-toluylthiopurine], the IC50 in series [1] (setting [8]) stood at 0.06 µM. Besides, the CC50 in series [2] came out at 108 µM.

Source of the values: patent publication US5840716A, “Phosphonate nucleotide compounds” (priority 1996, dated 1998).
